According to the NIST ThermoML archive (doi:10.1016/j.tca.2015.09.001):

Assay: molar heat capacity at constant pressure
Conditions: 101.33 kPa, Crystal, Small sample (50 mg) DSC

c12c3c4c5c1c1c6c7c2c2c8c3c3c9c4c4c%10c5c5c1c1c6c6c%11c7c2c2c7c8c3c3c8c9c4c4c9c%10c5c5c1c1c6c6c%11c2c2c7c3c3c8c4c4c9c5c1c1c6c2c3c41 [buckminsterfullerene]
Conditions	molar heat capacity at constant pressure [J/K/mol]
298.15 K	535.8
300 K	538.6
350 K	648.1
400 K	742
450 K	830.1
500 K	917.4
